US6696467B2, “Quinoline derivatives” (Hoffmann-La Roche Inc., priority 2002, dated 2004)
pIC50: −log10 of the molar value.

Target: T1, recombinant mouse NPY5-receptor (mNPY5) (Mus musculus, UniProt O70342)
T1 construct: The full-length cDNA encoding the mouse NPY5 (mNPY5) receptor was amplified from mouse brain cDNA; expressed in transfected cells; membranes used
T1 sequence (O70342 1-466): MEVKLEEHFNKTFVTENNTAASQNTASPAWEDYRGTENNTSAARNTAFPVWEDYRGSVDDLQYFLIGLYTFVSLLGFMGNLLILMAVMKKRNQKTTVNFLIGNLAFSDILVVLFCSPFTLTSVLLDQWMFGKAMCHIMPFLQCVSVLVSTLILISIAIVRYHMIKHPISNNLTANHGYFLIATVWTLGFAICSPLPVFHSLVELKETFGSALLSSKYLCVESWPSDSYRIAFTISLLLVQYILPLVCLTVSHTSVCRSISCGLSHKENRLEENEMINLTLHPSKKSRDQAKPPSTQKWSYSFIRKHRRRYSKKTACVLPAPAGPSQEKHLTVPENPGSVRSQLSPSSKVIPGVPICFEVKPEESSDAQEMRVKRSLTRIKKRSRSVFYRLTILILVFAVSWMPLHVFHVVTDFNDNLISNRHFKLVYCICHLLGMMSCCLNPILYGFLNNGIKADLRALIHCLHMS
Experiment: Radioligand competition binding
Conditions: displacement of 100 pM [125I]labelled peptide YY (PYY), membranes of HEK293 cells expressing mNPY5, 1 h at 22° C.
Text: The full-length cDNA encoding the mouse NPY5 (mNPY5) receptor was amplified from mouse brain cDNA using specific primers, designed based on the published sequence, and Pfu DNA-Polymerase (Stratagene). The amplification product was subcloned into the mammalian expression vector pcDNA3 using Eco RI and XhoI restriction sites. Positive clones were sequenced and one clone, encoding the published sequence (see Borowsky B., et al., Regul. Pept., 75-76:45-53 (1998)) was selected for generation of stable cell clones.
Human embryonic kidney 293 (HEK293) (ATCC No. CRL-1573) cells were transfected with 10 μg mNPY5 DNA using the lipofectamine reagent (Gibco BRL) according to the manufacturer's instruction. Two days after transfection, geneticin selection (1 mg/ml) was initiated and several stable clones were isolated. One clone was further used for pharmacological characterization.
Human embryonic kidney 293 cells (HEK293), expressing recombinant mouse NPY5-receptor (mNPY5) were broken by three freeze/thawing cycles in hypotonic Tris buffer (5 mM, pH 7.4, 1 mM MgCl2), homogenized and centrifuged at 72,000×g for 15 min. […] Protein was determined according to the method of Lowry using bovine serum albumine (BSA) as a standard. […]

pIC50	SMILES
9.15	Cc1cc(N2CCCC2)c2ccc(NCC(C)C)cc2n1 [Example 2, isobutyl-(2-methyl-4-pyrrolidin-1-yl-quinolin-7-yl)-amine]
9.52	Cc1cc(N2CCCC2)c2ccc(NC(=O)c3ccco3)cc2n1 [Example 54, furan-2-carboxylic acid (2-methyl-4-pyrrolidin-1-yl-quinolin-7-yl)-amide]
